Each structure is given as a SMILES string. Structures can show the parent of a compound that is named as a salt.

For one assay, the target named is T1, human PAR2 receptor (Homo sapiens, UniProt P55085).
T1 construct: expressed in transfected cells; host or cells: 1321N1 cells
T1 sequence (P55085 26-397): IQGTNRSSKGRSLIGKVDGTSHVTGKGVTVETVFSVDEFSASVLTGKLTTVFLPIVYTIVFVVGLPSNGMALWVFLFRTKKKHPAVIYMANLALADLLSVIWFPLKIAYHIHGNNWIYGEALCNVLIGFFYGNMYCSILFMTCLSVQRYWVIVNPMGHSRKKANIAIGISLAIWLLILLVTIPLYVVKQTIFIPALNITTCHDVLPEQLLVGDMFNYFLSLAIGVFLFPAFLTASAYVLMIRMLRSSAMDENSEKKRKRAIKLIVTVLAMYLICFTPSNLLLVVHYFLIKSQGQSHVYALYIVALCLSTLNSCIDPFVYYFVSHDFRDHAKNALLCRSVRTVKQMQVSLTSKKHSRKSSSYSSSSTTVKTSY
Nature of the assay: PAR2 antagonist activity, calcium flux FLIPR assay (trypsin challenge). Type of assay: cell-based.
Details: not given
Here is the method: The PAR2 receptor couples through the Gq signaling pathway and results in activation of calcium mobilization. The functional activity of test compounds was routinely tested by measuring the ability of compounds to antagonize PAR2 (trypsin challenge) activity in a dose dependent manner, in 1321N1 cells transfected with the human PAR2 receptor, using a calcium flux Fluorescent Imaging Plate Reader FLIPR assay.
Briefly, test compounds were dissolved in DMSO to a concentration of 20 mM and stored in matrix screenmate racks. […] The compounds were then transferred to 384-well assay plates ready for use. […] The assay buffer used was HBSS buffer supplemented with 20 mM HEPES and 0.1% BSA (protease free), pH7.4. The loading/wash buffers were the same as the assay buffer.
Sub-cultivations were performed every 2-3 d. […] After washing, the cells were loaded with Fluo-4 AM dye (Molecular probes) at 2 μM containing 0.48 μg/mL pluronic acid for 60 min at 37° C. under 5% CO2.
A combined agonist/antagonist protocol was used to measure changes in intracellular calcium concentration. Compound (antagonist) was added to the cell plate using a Fluorometric Imaging Plate Reader (FLIPR) (Molecular Devices, Sunnyvale, Calif., USA). Basal fluorescence was recorded every second for 10 seconds prior to compound addition (10 μl) and fluorescence recorded every second for 1 min then every 6 seconds for a further 1 min. Trypsin (EC50 concentration) was then added using the FLIPR and fluorescence recorded as described above. Curve-fitting and parameter estimation were carried out using GraphPad Prism 4.0 (GraphPad Software Inc., San Diego, Calif.).
(Calcium assays in cells follow changes in intracellular calcium, usually with a dye or a luminescent sensor.)
By IC50 is commonly meant the midpoint of a concentration-inhibition curve. `O=C(NCc1ccc2nc[nH]c2c1)N1CCC(Nc2ccc(F)cc2)CC1` [Example 58, N-(1H-1,3-Benzodiazol-6-ylmethyl)-4-[(4-fluorophenyl)amino]piperidine-1-carboxamide]: the IC50 lay in the range of 20 to 50 µM.

The assay is the same for the next values; noted with them: 1321N1 cells transfected with the human PAR2 receptor; trypsin (EC50 concentration) challenge; calcium flux FLIPR; read-out: PAR2 IC50.
In the case of `NCc1ccc(CNC(=O)N2CCC(c3ccccc3)C2)cc1` (stereo not shown) [Example 29, 2,2,2-Trifluoroacetic acid; N-{[4-(aminomethyl)phenyl]methyl}-3-phenylpyrrolidine-1-carboxamide], the half-inhibitory concentration (IC50) fell in the range of 50 to 100 µM.

Regarding `CN(Cc1ccc(CN)cc1)C(=O)N1CCC(Cc2ccccc2)CC1` [Example 30, 2,2,2-Trifluoroacetic acid; N-{[4-(aminomethyl)phenyl]methyl}-4-benzyl-N-methylpiperidine-1-carboxamide], the IC50 was in the range of 50 to 100 µM.

Consider `NCc1ccc(CNC(=O)N2CCC(C(=O)N3CCCCC3)CC2)cc1` [Example 31, N-{[4-(Aminomethyl)phen-yl]methyl}-4-[(piperidin-1-yl)carbon-yl]piperidine-1-carboxamide hydrochloride], for which the IC50 is 50 to 100 µM.

In the case of `NCc1ccc(CNC(=O)N2CCC(C(=O)N3CCc4ccccc43)CC2)cc1` [Example 32, 2,2,2-Trifluoroacetic acid; N-{[4-(aminomethyl)phenyl]methyl}-4-[(2,3-dihydro-1H-indol-1-yl)carbonyl]piper-idine-1-carboxamide], the IC50 fell in the range of 50 to 100 µM.

On to `NCc1ccc(CNC(=O)N2CCC(n3c(=O)[nH]c4ccccc43)CC2)cc1` [Example 33, N-{[4-(Aminomethyl)phen-yl]methyl}-4-(2-oxo-2,3-dihydro-1H-1,3-benzodiazol-1-yl)piperidine-1-carboxa-mide hydrochloride], for which the IC50 lay in the range of 20 to 50 µM.

As for `NCc1ccc(CNC(=O)N2CCC(c3nc4ccccc4o3)CC2)cc1` [Example 34, N-{[4-(Aminomethyl)phen-yl]methyl}-4-(1,3-benzoxazol-2-yl)pipe-ridine-1-carboxamide], the IC50 was below 5 µM. The same measure, in the same setting: the same measure for `NCc1ccc(CNC(=O)N2CCC(Cc3ccccc3)CC2)cc1F` [Example 35, N-{[4-(Aminomethyl)-3-fluorophenyl]methyl}-4-benzylpiperidine-1-carboxamide]: below 5 µM. Same read-out and setting: the same measure for `N=C(N)c1ccc(CNC(=O)N2CCC(Cc3ccccc3)CC2)cc1` [Example 36, 4-Benzyl-N-[(4-carbamimidoylphenyl)methyl]piperidine-1-carboxamide]: below 5 µM; for `CNC(=N)c1ccc(CNC(=O)N2CCC(Cc3ccccc3)CC2)cc1` [Example 37, 2,2,2-Trifluoroacetic acid; 4-benzyl-N-{[4-(N-methylcarbamimidoyl)phen-yl]methyl} piperidine-1-carboxamide]: 20 to 50 µM. `CN(C)C(=N)c1ccc(CNC(=O)N2CCC(Cc3ccccc3)CC2)cc1` [Example 38, 2,2,2-Trifluoroacetic acid; 4-benzyl-N-{[4-(N,N-dimethylcar-bamimidoyl)phen-yl]methyl} piperidine-1-carboxamide]: the IC50 lay within 5 to 20 µM. The same measure, in the same setting: the same measure for `O=C(NCc1ccc(C2=NCCN2)cc1)N1CCC(Cc2ccccc2)CC1` [Example 39, 4-Benzyl-N-{[4-(4,5-dihydro-1H-imidazol-2-yl)phenyl]methyl}piperidine-1-carboxamide]: 20 to 50 µM; for `N=C(N)c1ccc(CNC(=O)N2CCC(Cc3ccncc3)CC2)cc1` [Example 40, N-[(4-Carbamimidoylphen-yl)methyl]-4-(pyridin-4-ylmethyl)piperi-dine-1-carboxamide]: below 5 µM; for `N=C(N)c1ccc(CNC(=O)N2CCC(c3ccccc3)C2)cc1` (stereo not shown) [Example 41, N-[(4-Carbamimidoylphen-yl)methyl]-3-phenylpyrrolidine-1-carboxamide hydrochloride]: 5 to 20 µM. The same measure, in the same setting: as for `N=C(N)c1ccc(CNC(=O)N2CCN(Cc3ccccc3)CC2)cc1` [Example 42, 4-Benzyl-N-[(4-carbamimidoylphenyl)meth-yl]piperazine-1-carboxamide dihydrochloride], the figure is below 5 µM; as for `CN(Cc1ccc(C(=N)N)cc1)C(=O)N1CCC(Cc2ccccc2)CC1` [Example 43, 4-Benzyl-N-[(4-carbamimidoylphenyl)methyl]-N-methylpiperidine-1-carboxamide hydrochloride], 5 to 20 µM; as for `N=C(N)c1ccc(CNC(=O)C2CCN(Cc3ccccc3)CC2)cc1` [Example 44, 1-Benzyl-N-[(4-carbamimidoylphenyl)meth-yl]piperidine-4-carboxamide dihydrochloride], 5 to 20 µM. Still for that read-out and setting: the same measure for `N=C(N)c1ccc(CNC(=O)N2CCC(Cc3ccccc3)CC2)cc1F` [Example 45, 4-Benzyl-N-[(4-carbamimidoyl-3-fluorophenyl)meth-yl]piperidine-1-carboxamide hydrochloride]: below 5 µM; for `N=C(N)c1ccc(CNC(=O)N2CCC(Cc3cccc(O)c3)CC2)cc1` [Example 47, N-[(4-Carbamimidoylphen-yl)methyl]-4-[(3-hydroxyphenyl)meth-yl]piperidine-1-carboxamide hydrochloride]: below 5 µM. As to `N=C(N)c1ccc(CNC(=O)N2CCC(Cc3ccccc3)CC2)cn1` [Example 50, 4-Benzyl-N-[(6-carbam-imidoylpyridin-3-yl)methyl]piperidine-1-carboxamide hydrochloride], the IC50 was below 5 µM. Regarding `O=C(NCc1ccc(-c2ncc[nH]2)cc1)N1CCC(Cc2ccccc2)CC1` [Example 51, 4-Benzyl-N-{[4-(1H-imidazol-2-yl)phenyl]methyl}piperidine-1-carboxamide], the IC50 lay within 20 to 50 µM.

On to `O=C(NCc1ccc2nc[nH]c2c1)N1CCC(Cc2ccccc2)CC1` [Example 52, N-(1H-1,3-Benzodiazol-6-ylmethyl)-4-benzylpiperidine-1-carboxamide], for which the IC50 fell in the range of 5 to 20 µM. The same measure, in the same setting: as for `O=C(NCc1cc2cnccc2[nH]1)N1CCC(Cc2ccccc2)CC1` [Example 53, 4-Benzyl-N-{1H-pyrrolo[3,2-c]pyridin-2-ylmethyl}piperidine-1-carboxamide], the figure is 20 to 50 µM; as for `Cn1cnc2ccc(CNC(=O)N3CCC(Cc4ccccc4)CC3)cc21` [Example 54, 4-Benzyl-N-[(1-methyl-1H-1,3-benzodiazol-6-yl)methyl]piperidine-1-carboxamide], 50 to 100 µM. For the compound `O=C(NCc1ccc2nc[nH]c2c1)N1CCC(Oc2ccc(F)cc2)CC1` [Example 55, N-(1H-1,3-Benzodiazol-6-ylmethyl)-4-(4-fluorophenoxy)piperidine-1-carboxamide], the IC50 was 20 to 50 µM. The same measure, in the same setting: the same measure for `COc1ccc(CC2CCN(C(=O)NCc3ccc4nc[nH]c4c3)CC2)cc1` [Example 56, N-(1H-1,3-Benzodiazol-6-ylmethyl)-4-[(4-methoxyphenyl)methyl] piperidine-1-carboxamide]: 20 to 50 µM; for `O=C(NCc1ccc2nc[nH]c2c1)N1CCC(Cc2ccncc2)CC1` [Example 57, N-(1H-1,3-Benzodiazol-6-ylmethyl)-4-(pyridin-4-ylmethyl)piperidine-1-carboxamide]: 20 to 50 µM. The same measure, in the same setting: the same measure for `O=C(NCc1ccc2nc[nH]c2c1)N1CCC(c2ccccc2)C1` (stereo not shown) [Example 59, 2,2,2-Trifluoroacetic acid; N-(1H-1,3-benzodiazol-5-ylmethyl)-3-phenylpyrrolidine-1-carboxamide]: 5 to 20 µM.

The record behind these values is patent US20130324556A1, “Protease Activated Receptor 2 (PAR2) Antagonists” (priority 2011, published 2013).
